# Laboratory results reported in US10758634B2, “Compounds, compositions and associated methods using zirconium-89 in immuno-positron emission tomography” (Wake Forest University, priority 2016, dated 2020).
# “Also recorded” adds a separate entry of the source.
# What was measured:
# [1] = Human serum stability (radio-TLC/ITLC, size exclusion chromatography); assay type: in vitro ADME; conditions: for degradation in human serum (radio-ITLC): human serum proteins, 7 days at 37° C.; for In vitro stability (Radio-TLC): Serum, n = 3
# Protocol: (§1) Lipophilicity (Log P) will be determined using the water:octanol method. Briefly, the water:octanol (1:1) solution containing the ^89Zr-complex (0.19 MBq) will be vortexed (5 min) and then centrifuged (5 minutes at 17,000 rpm). After separation, aliquots from each layer will be counted separately in the gamma counter, and Log P will be calculated as the ratio of counts in the octanol fraction to counts in the aqueous fraction. In vitro stability will be determined by incubating each ^89Zr complex at 37° C. in the presence 500 μL of DTPA (50 mM, pH 7 or pH 5), 500 μL of EDTA (50 mM, pH 7 or pH 5), or 500 μL of human serum (at 37° C.). The different pH environments will be meant to reflect the pH environments in normal blood (pH 7) or the lysosome (pH 5). Samples will be analyzed over the course of 7 days using radio-TLC and radio-HPLC.
# To further characterize the stability of Zr-tetraazamacrocycle complexes and preliminarily assess their suitability for in vivo applications, each radiometal complex was incubated with human serum proteins for 7 days at 37° C.
# Any ^89Zr transchelated to serum proteins is expected to be complexed by EDTA and move to the solvent front in this system.
# [2] = In vitro solution behaviour (aggregation/precipitation); assay type: physicochemical; conditions: unless a low concentration of surfactant was included
# [3] = EDTA challenge, in vitro stability (radio-TLC); assay type: physicochemical; conditions: for order of ^89Zr complex stability: based upon EDTA challenge studies
# Protocol: as §1, with “In vitro stability will be determined by incubating each ^89Zr complex at 37° C. in the presence 500 μL of DTPA (50 mM, pH 7 or pH 5), 500 μL of EDTA (50 mM, pH 7 or pH 5), or 500 μL of human serum (at 37° C.).” left out
# Based upon our EDTA challenge studies, the order of ^89Zr complex stability can be described as ^89Zr-DOTA>>^89Zr-DOTP>^89Zr-DOTAM>^89Zr-DFO.
# [4] = Acute in vivo biodistribution of ^89Zr-complexes in normal mice; parameters: species or system NIH Swiss mice; conditions: for radioactivity retention in bone tissue over time: up to 72 h
# Protocol: NIH Swiss mice (n=6/time point) will be injected with the ^89Zr-AMC (0.56 MBq (15 μCi)), and then sacrificed at 1, 4, 24, 48 and 72 h post-injection (p.i.). Organs of interest will be removed, weighed and counted on a gamma counter. Percent injected dose per gram (% ID/g) and percent injected dose per organ (% ID/organ) will be counted and compared to a weighed, counted standard for all groups.
# The in vivo stability of ^89Zr-DOTA, ^89Zr-DOTP, and ^89Zr-DOTAM were then evaluated in acute biodistribution studies using female NIH Swiss mice (6-8 wk old, n=6). […] While surfactant was used in the injection formulation for biodistribution studies, it is hypothesized that once in the blood stream, ^89Zr-DOTAM aggregates with serum proteins, which are deposited in these tissues during circulation.
# [5] = Lipophilicity (log P), water/octanol partition method; assay type: physicochemical
# Protocol: as §1
# [6] = Metal competition studies (demetallation by excess metal salts); assay type: physicochemical; conditions: for complex remaining intact: 7 days
# Protocol: Tetraazamacrocycles can chelate numerous, biologically relevant metal cations, and this property can potentially create a second mechanism for ^89Zr^4+ dissociation from its chelator in vivo. To assess the ability of the Zr-complexes to resist demetallation by another metal cation, metal competition studies were performed, in which the radiometal complex was mixed with an excess concentration of metal salts.
# [7] = Small animal PET imaging in normal mice; assay type: in vivo; conditions: for radioactivity at 4 h (static PET): 4 h after injection; for radioactivity at 24 h (static PET): 24 h after injection; for excretion route (PET): mouse, in vivo
# Protocol: Small animal PET/CT imaging will be conducted on the ^89Zr-AMCs identified from studies described above and in vivo biodistribution studies. NIH Swiss mice (n=6/cohort) will be injected with either ^89ZrCl4, ^89Zr-DFO (11 MBq (300 μCi)) or ^89Zr-AMC and imaged using 1 h dynamic scanning followed by static imaging at 4, 24, 48 h and 72 h p.i. […] All PET images will be co-registered with CT, to (a) allow more accurate selection of regions of interest to correspond with anatomy described by CT, and (b) reduce inaccuracies that result from partial volume effects, which can result in falsely low standard uptake values (SUVs) during data analysis. SUVs and the corresponding % ID/g will be determined from the co-registered PET/CT images using the formula SUV=[nCi/cc×animal weight/injected dose], and correlated to the biodistribution data.
# Normal mice were injected with ^89Zr-DFO and ^89Zr-DOTA and dynamic PET imaging done from 0-60 minutes, followed by static imaging at 2, 4, and 24 hours after injection.
# [8] = DTPA challenge, in vitro stability (radio-TLC); assay type: physicochemical; conditions: 50 mM DTPA, n = 3
# Protocol: as §1
# [9] = EDTA challenge, in vitro stability (radio-TLC); assay type: physicochemical; conditions: 50 mM EDTA, pH 5.5, n = 3
Structure (SMILES),degradation in human serum (radio-ITLC) [1],Lipophilicity (log P) [5],radioactivity at 24 h (static PET) [7],excretion route (PET) [7],In vitro stability (Radio-TLC) ([1]; 1 h) [%],In vitro stability (Radio-TLC) ([1]; 7 d) [%],"In vitro stability (Radio-TLC) ([8]; pH 5.5, 1 h) [%]","In vitro stability (Radio-TLC) ([8]; pH 5.5, 7 d) [%]","In vitro stability (Radio-TLC) ([8]; pH 7.0, 1 h) [%]","In vitro stability (Radio-TLC) ([8]; pH 7.0, 7 d) [%]",In vitro stability (Radio-TLC) ([9]; 1 h) [%],In vitro stability (Radio-TLC) ([9]; 7 d) [%],"blood clearance ([4]; normal mice, n=6/group)",order of ^89Zr complex stability [3],radioactivity at 4 h (static PET) [7],radioactivity retention in bone tissue over time [4],other results
"[Cl][89Zr]([Cl])([Cl])[Cl] [^89ZrCl4, reference compound]",,,,,,,,,,,,,,,,,association with serum proteins (size exclusion chromatography) ([1]; unchelated ^89Zr control): found to be associated with serum proteins
NC(=O)CN1CCN(CC(N)=O)CCN(CC(N)=O)CCN(CC(N)=O)CC1.[89Zr+4] [^89Zr-DOTAM],no noticeable degradation,,,,,,,,,,,,,^89Zr-DOTA>>^89Zr-DOTP>^89Zr-DOTAM>^89Zr-DFO,,,"behaviour in solution in vitro [2]: aggregated and precipitated out of solution; radioactivity retained in liver and spleen ([4]; female NIH Swiss mice, not excreted over 72 hour time course): retained elevated levels of radioactivity in liver and spleen tissues"
"CC(=O)N([O-])CCCCCNC(=O)CCC(=O)N([O-])CCCCCNC(=O)CCC(=O)N([O-])CCCCCN.[89Zr+4] [^89Zr-DFO, reference compound]",no noticeable degradation,,still visible in static images,excreted renally,100,99.3 ± 0.1,7.3 ± 0.8,0,90.3 ± 0.5,40.6 ± 0.5,6.3 ± 0.8,0,rapid blood clearance,^89Zr-DOTA>>^89Zr-DOTP>^89Zr-DOTAM>^89Zr-DFO,more radioactivity accumulated in the kidneys,increases over time,"complex remaining intact ([6]; challenged with Fe^3+): 33.9%; complex remaining intact ([6]; challenged with Ga^3+): 72.6%; loss of metal ions in EDTA challenge ([3]; 1000-fold excess of EDTA, after 3 h): completely lost metal ions"

# Second part, led by results:
degradation in human serum (radio-ITLC) [1],Lipophilicity (log P) [5],radioactivity at 24 h (static PET) [7],excretion route (PET) [7],In vitro stability (Radio-TLC) ([1]; 1 h) [%],In vitro stability (Radio-TLC) ([1]; 7 d) [%],"In vitro stability (Radio-TLC) ([8]; pH 5.5, 1 h) [%]","In vitro stability (Radio-TLC) ([8]; pH 5.5, 7 d) [%]","In vitro stability (Radio-TLC) ([8]; pH 7.0, 1 h) [%]","In vitro stability (Radio-TLC) ([8]; pH 7.0, 7 d) [%]",In vitro stability (Radio-TLC) ([9]; 1 h) [%],In vitro stability (Radio-TLC) ([9]; 7 d) [%],"blood clearance ([4]; normal mice, n=6/group)",Structure (SMILES),order of ^89Zr complex stability [3],radioactivity at 4 h (static PET) [7],radioactivity retention in bone tissue over time [4],other results
no noticeable degradation,most hydrophilic characteristics,,,,,,,,,,,,O=P([O-])(O)CN1CCN(CP(=O)([O-])O)CCN(CP(=O)([O-])O)CCN(CP(=O)([O-])O)CC1.[89Zr+4] [^89Zr-DOTP],^89Zr-DOTA>>^89Zr-DOTP>^89Zr-DOTAM>^89Zr-DFO,,,bone retention compared to ^89Zr-DFO ([4]; n=6/group): Bone retention is higher; radioactivity retained in liver and kidney compared to ^89Zr-DFO ([4]; n=6/group): retained less radioactivity in the liver and kidney
no noticeable degradation,most hydrophilic characteristics,barely above background levels,excreted renally,100,100,100,100,100,100,100,100,rapid blood clearance,O=C([O-])CN1CCN(CC(=O)[O-])CCN(CC(=O)[O-])CCN(CC(=O)[O-])CC1.[89Zr+4] [^89Zr-DOTA],^89Zr-DOTA>>^89Zr-DOTP>^89Zr-DOTAM>^89Zr-DFO,nearly all the radioactivity was excreted,remained low with no statistically significant changes at any time point,"demetallation in metal competition ([6]; excess concentration of metal salts, 7-day experiment): No demetallation; radioactivity in kidney and bone compared to ^89Zr-DFO (PET) ([7]; dynamic PET 0-60 minutes): much lower; transchelation in EDTA challenge ([3]; 100-, 500-, and 1000-fold excess of EDTA at pH 5 or pH 7 over 7 days): did not experience transchelation; reduction in radioactivity accumulation in the liver, kidney, and bone ([4]; 72 hours, pilot data): ≥ 10%; radioactivity retained in blood, liver, kidney and bone compared to ^89Zr-DOTP ([4]; intravenous injection): retained significantly less radioactivity in their blood, liver, kidney and bone tissue; radioactivity retained in liver, kidney and bone compared to ^89Zr-DFO ([4]; normal mice, n=6/group): lower radioactivity retention in liver, kidney, and bone tissues; also recorded: retained less radioactivity in the liver, kidney and bone"
